Measurements published in US12582645B2, “Chemokine CXCR4 receptor modulators and uses related thereto” (Emory University, priority 2017, dated 2026).

Each compound was assayed against T1, CXCR4 (Homo sapiens, UniProt P61073) (assay: CXCR4-CEM calcium flux assay, antagonist mode (inhibition of SDF-1α-induced calcium flux)). Conditions: CCRF-CEM cells expressing endogenous CXCR4, stimulated with 4 nM SDF-1α, read-out: CXCR4 Ca^2+ Flux IC50.
T1 construct: Human T lymphoblast cells (CCRF-CEM) expressing endogenous CXCR4 receptors; endogenous in cells; host or cells: CCRF-CEM (human T lymphoblast cells)
Type: cell-based
Description: CXCR4-CEM Calcium Flux Assays
Exemplary compounds of the invention were tested for their ability to induce or inhibit calcium flux in CCRF-CEM cells, a human cell line that endogenously expresses CXCR4. Activation of CXCR4 stimulates G protein signaling which, in CCRF-CEM cells, causes a series of downstream events that leads to the release of intracellular calcium stores, or calcium flux. Calcium ion concentrations can be easily measured using a wide variety of […] calcium indicators and, as a result, calcium flux assays are commonly employed methods for measuring G protein-coupled receptor (GPCR) activity. Because the therapeutic potential of CXCR4 antagonists as anti-cancer agents likely relies on their ability to inhibit CXCR4-mediated G protein signaling, this assay was utilized as a first-pass measure of inhibitor potency.
The cells were then equilibrated to room temperature for 30 minutes before assay. […] For “antagonist mode” assessment, the cells are subsequently incubated for 25 minutes at room temperature. SDF-1α (R&D System Cat #350-NS/CF) was then added at a final concentration of 4 nM to stimulate the cells. Inhibition of SDF-1α-induced calcium flux was monitored by FDSS6000 for 90 seconds.
After correcting for background, EC50 values were determined. […] Inhibition data for the test compound over a range of concentrations was plotted as percentage inhibition of the test compound as compared to an internal control compound.

T1 sequence (P61073 whole entry): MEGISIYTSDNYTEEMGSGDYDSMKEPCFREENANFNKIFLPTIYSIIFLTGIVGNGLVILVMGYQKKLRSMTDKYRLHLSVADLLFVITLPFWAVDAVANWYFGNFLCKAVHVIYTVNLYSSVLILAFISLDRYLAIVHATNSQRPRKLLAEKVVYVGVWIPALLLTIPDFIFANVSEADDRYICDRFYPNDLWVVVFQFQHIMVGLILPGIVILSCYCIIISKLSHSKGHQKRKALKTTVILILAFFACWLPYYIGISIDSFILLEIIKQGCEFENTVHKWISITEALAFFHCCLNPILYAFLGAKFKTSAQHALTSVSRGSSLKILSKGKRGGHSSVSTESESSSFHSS

SMILES	IC50 [nM]
CC1(C)CCC(NC/C=C/CN(C[C@H]2Cc3ccccc3CN2)[C@H]2CCCc3cccnc32)CC1 [EMU153, (E)-N1-(4,4-dimethylcyclohexyl)-N4-(((R)-1,2,3,4-tetrahydroisoquinolin-3-yl)methyl)-N4-((S)-5,6,7,8-tetrahydroquinolin-8-yl)but-2-ene-1,4-diamine]	64.6
FC1(F)CCC(NC/C=C/CN(C[C@H]2Cc3ccccc3CN2)[C@H]2CCCc3cccnc32)CC1 [EMU154, (E)-N1-(4,4-difluorocyclohexyl)-N4-(((R)-1,2,3,4-tetrahydroisoquinolin-3-yl)methyl)-N4-((S)-5,6,7,8-tetrahydroquinolin-8-yl)but-2-ene-1,4-diamine]	82.1
C(=C\CN(C[C@H]1Cc2ccccc2CN1)[C@H]1CCCc2cccnc21)/CNC1CCOCC1 [EMU155, (E)-N1-(tetrahydro-2H-pyran-4-yl)-N4-(((R)-1,2,3,4-tetrahydroisoquinolin-3-yl)methyl)-N4-((S)-5,6,7,8-tetrahydroquinolin-8-yl)but-2-ene-1,4-diamine]	15.5
CN(C[C@H]1Cc2c(cccc2N2CCN3CCC[C@H]3C2)CN1)[C@H]1CCCc2cccnc21 [EMU160]	2.92
CC(C)N(C[C@H]1Cc2c(cccc2N2CCNCC2)CN1)[C@H]1CCCc2cccnc21 [EMU163]	364
Cc1cccnc1CN(CCCN1CCNCC1)C[C@H]1Cc2c(cccc2N2CCNCC2)CN1 [EMU164, (R)—N-((3-methylpyridin-2-yl)methyl)-3-(piperazin-1-yl)-N-((5-(piperazin-1-yl)-1,2,3,4-tetrahydroisoquinolin-3-yl)methyl)propan-1-amine]	33.7
Cc1ccc(CN(CCCCN)C[C@H]2Cc3c(cccc3N3CCNCC3)CN2)nc1 [EMU165, (R)—N1-((5-methylpyridin-2-yl)methyl)-N1-((5-(piperazin-1-yl)-1,2,3,4-tetrahydroisoquinolin-3-yl)methyl)butane-1,4-diamine]	115
Cc1cccnc1CN(CCCCN)C[C@H]1Cc2c(cccc2N2CCNCC2)CN1 [EMU166, (R)—N1-((3-methylpyridin-2-yl)methyl)-N1-((5-(piperazin-1-yl)-1,2,3,4-tetrahydroisoquinolin-3-yl)methyl)butane-1,4-diamine]	9.88
CN(C[C@H]1Cc2c(cccc2NCCN2CCOCC2)CN1)[C@H]1CCCc2cccnc21 [EMU173, (S)—N-methyl-N—(((R)-5-((2-morpholinoethyl)amino)-1,2,3,4-tetrahydroisoquinolin-3-yl)methyl)-5,6,7,8-tetrahydroquinolin-8-amine]	21.5
C/C(=C/CN(C[C@H]1Cc2ccccc2CN1)[C@H]1CCCc2cccnc21)CN [EMU177]	13.2
C(=C\CN(C[C@H]1Cc2ccccc2CN1)[C@H]1CCCc2cccnc21)/CNCC1CCOCC1 [EMU180, (E)-N1-((tetrahydro-2H-pyran-4-yl)methyl)-N4-(((R)-1,2,3,4-tetrahydroisoquinolin-3-yl)methyl)-N4-((S)-5,6,7,8-tetrahydroquinolin-8-yl)but-2-ene-1,4-diamine]	24.2
CC1(C)CCC(NCc2ccc(CN(C[C@H]3Cc4ccccc4CN3)[C@H]3CCCc4cccnc43)cc2)CC1 [EMU181, (S)—N-(4-(((4,4-dimethylcyclohexyl)amino)methyl)benzyl)-N—(((R)-1,2,3,4-tetrahydroisoquinolin-3-yl)methyl)-5,6,7,8-tetrahydroquinolin-8-amine]	661
FC1(F)CCC(NCc2ccc(CN(C[C@H]3Cc4ccccc4CN3)[C@H]3CCCc4cccnc43)cc2)CC1 [EMU182, (S)—N-(4-(((4,4-difluorocyclohexyl)amino)methyl)benzyl)-N—(((R)-1,2,3,4-tetrahydroisoquinolin-3-yl)methyl)-5,6,7,8-tetrahydroquinolin-8-amine]	143
CN(C[C@H]1Cc2c(cccc2N2CCN(C3COC3)CC2)CN1)[C@H]1CCCc2cccnc21 [EMU183]	380
c1cnc2c(c1)CCC[C@@H]2N(CCCN1CCNCC1)Cc1nc2ccccc2[nH]1 [EMU185, (S)—N-((1H-benzo[d]imidazole-2yl)methyl)-N-(3-(piperazine-1yl)propyl)-5,6,7,8-tetrahydroquinolin-8-amine]	45.3
c1cnc2c(c1)CCC[C@@H]2N(CCCN1CCNCC1)Cc1nc2ccccc2s1 [EMU186, (S)—N-((1H-benzo[d]thiazol-2yl)methyl)-N-(3-(piperazine-1yl)propyl)-5,6,7,8-tetrahydroquinolin-8-amine]	1200
c1cnc(CN(CCCN2CCNCC2)[C@H]2CCCc3cccnc32)nc1 [EMU187, (S)—N-(3-(piperazin-1yl)propyl)-N-(pyrimidin-2ylmethyl)-5,6,7,8-tetrahydroquinolin-8-amine]	4320
CN(C[C@H]1Cc2c(cccc2N2CCN(C3CC3)CC2)CN1)[C@H]1CCCc2cccnc21 [EMU196]	23.5
CC(C)N1CCN(c2cccc3c2C[C@H](CN(C)[C@H]2CCCc4cccnc42)NC3)CC1 [EMU197]	16.9
C[C@@H]1CN(c2cccc3c2C[C@H](CN(C)[C@H]2CCCc4cccnc42)NC3)C[C@H](C)N1C [EMU198]	14.1

SMILES	IC50 [nM]
CCN1CCN(c2cccc3c2C[C@H](CN(C)[C@H]2CCCc4cccnc42)NC3)CC1 [EMU199]	13.8
CN(C[C@H]1Cc2c(cccc2N2C[C@H]3C[C@@H]2CN3)CN1)[C@H]1CCCc2cccnc21 [EMU200]	20.7
CN(C[C@H]1Cc2c(cccc2N2CCN(c3ncccn3)CC2)CN1)[C@H]1CCCc2cccnc21 [EMU203]	30.7
C/C(=C/CN)CN(C[C@H]1Cc2ccccc2CN1)[C@H]1CCCc2cccnc21 [EMU208]	28.2
NC(=O)NC/C=C\CN(C[C@H]1Cc2ccccc2CN1)[C@H]1CCCc2cccnc21 [EMU211]	207
c1ccc2c(c1)CN[C@@H](CN(Cc1ccc(CNC3CCOCC3)cc1)[C@H]1CCCc3cccnc31)C2 [EMU217, (S)—N-(4-(((tetrahydro-2H-pyran-4-yl)amino)methyl)benzyl)-N—(((R)-1,2,3,4-tetrahydroisoquinolin-3-yl)methyl)-5,6,7,8-tetrahydroquinolin-8-amine]	90.3
c1ccc2c(c1)CN[C@@H](CN(Cc1ccc(CNCc3ccncc3)cc1)[C@H]1CCCc3cccnc31)C2 [EMU218, (S)—N-(4-(((pyridin-4-ylmethyl)amino)methyl)benzyl)-N—(((R)-1,2,3,4-tetrahydroisoquinolin-3-yl)methyl)-5,6,7,8-tetrahydroquinolin-8-amine]	134
c1ccc(CNCc2ccc(CN(C[C@H]3Cc4ccccc4CN3)[C@H]3CCCc4cccnc43)cc2)nc1 [EMU220, (S)—N-(4-(((pyridin-2-ylmethyl)amino)methyl)benzyl)-N—(((R)-1,2,3,4-tetrahydroisoquinolin-3-yl)methyl)-5,6,7,8-tetrahydroquinolin-8-amine]	286
C(=C\CN(C[C@H]1Cc2ccccc2CN1)[C@H]1CCCc2cccnc21)/CNCc1cccnc1 [EMU222, (E)-N1-(pyridin-3-ylmethyl)-N4-(((R)-1,2,3,4-tetrahydroisoquinolin-3-yl)methyl)-N4-((S)-5,6,7,8-tetrahydroquinolin-8-yl)but-2-ene-1,4-diamine]	92.8
C(=C\CN(C[C@H]1Cc2ccccc2CN1)[C@H]1CCCc2cccnc21)/CNCc1ccccn1 [EMU223, (E)-N1-(pyridin-2-ylmethyl)-N4-(((R)-1,2,3,4-tetrahydroisoquinolin-3-yl)methyl)-N4-((S)-5,6,7,8-tetrahydroquinolin-8-yl)but-2-ene-1,4-diamine]	58.3
CN(C[C@H]1Cc2c(cccc2N2CCN(c3cccc(C(F)(F)F)c3)CC2)CN1)[C@H]1CCCc2cccnc21 [EMU226]	> 16700
CN1C[C@@H]2CN(c3cccc4c3C[C@H](CN(C)C3CCCc5cccnc53)NC4)C[C@@H]2C1 (stereo partly shown) [EMU227]	9.56
CN(C)C1CCN(c2cccc3c2C[C@H](CN(C)[C@H]2CCCc4cccnc42)NC3)CC1 [EMU228]	35.9
CN1CCN(Nc2cccc3c2C[C@H](CN(C)[C@H]2CCCc4cccnc42)NC3)CC1 [EMU229]	47.4
Cc1cnc2c(c1)CCC[C@@H]2N(C)C[C@H]1Cc2c(cccc2N2CCNCC2)CN1 [EMU230, (S)—N,3-dimethyl-N—(((R)-5-(piperazin-1-yl)-1,2,3,4-tetrahydroisoquinolin-3-yl)methyl)-5,6,7,8-tetrahydroquinolin-8-amine]	16.1
CN1CCN(c2cccc3c2C[C@H](CN2CCC[C@H]4CCc5cccnc5[C@H]42)NC3)CC1 [EMU232, (4aR,10bS)-1-(((R)-5-(4-methylpiperazin-1-yl)-1,2,3,4-tetrahydroisoquinolin-3-yl)methyl)-1,2,3,4,4a,5,6,10b-octahydro-1,10-phenanthroline]	25.2
CN1Cc2cccc(N3CCNCC3)c2C[C@@H]1CN(C)[C@H]1CCCc2cccnc21 [EMU234]	32
CN(C[C@H]1Cc2c(cccc2N2C[C@H]3CCN(C)[C@H]3C2)CN1)C1CCCc2cccnc21 (stereo partly shown) [EMU235]	18.7
CN(C[C@H]1Cc2c(cccc2N2C[C@@H]3CCN(C)[C@@H]3C2)CN1)C1CCCc2cccnc21 (stereo partly shown) [EMU236]	11.4

Same assay, conditions: CXCR4 Ca^2+ Flux IC50, CCRF-CEM cells expressing endogenous CXCR4, stimulated with 4 nM SDF-1α

SMILES	IC50 [nM]
c1cnc2c(c1)CCC[C@@H]2N(CCCN1CCNCC1)Cc1cc2ccccc2cn1 [EMU168]	17.3
